Laboratory results taken from article PMC9490236, “Accurate de novo design of membrane-traversing macrocycles” (Cell, 2022).
Values joined by “and” are separate entries in the source; they are usually repeats but may differ in a detail not shown here. Identical values can stand only once. Like-named read-outs stand apart in the source and are kept apart here. Where a SMILES comes first, the peptide text is derived from it. [ ]: non-standard residue; d: D form. dNMeL = CN[C@H](CC(C)C)C(=O)O

What was measured:
[1] = Caco-2 permeability assay (apical to basolateral); type: in vitro ADME, human; details: Caco-2, Caco_Papp_Average
Method in brief: (§1)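 Caco-2 monolayers were grown on 0.4 μm Transwell inserts for 6 days. Peptides were applied apically at 50 μM with HBSS basolaterally and incubated 90 min at 37°C with shaking.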

Caco-2 cells = assay: Caco-2 permeability assay (apical to basolateral); type: in vitro ADME, human; details: Caco-2
Method in brief: as §1

[2] = Pharmacokinetics and oral bioavailability of D8.3.p1 and D10.1 in Balb/C female mice (PO, SQ, IV); type: in vivo
Protocol: In vivo bioavailability assays were conducted in mice and rats. D8.3.p1 and D10.1 were studied in female Balb/C mice by van Voorhis group at University of Washington. D11.2 was evaluated in Sprague Dawley (SD) rats by Robert Griffin’s group at Takeda Pharmaceuticals. D11.3 was studied in the male swiss albino mice by the contract research organization, GVK Biosciences Pvt. Ltd., Hyderabad, India. All animals used in these studies were handled in strict accordance with practices made to minimize suffering. All animal experiments conducted at the University of Washington, USA, and Takeda Pharmaceuticals, USA were approved by the Institutional Animal Care and Use Committee. Animal studies at GVK Biosciences were reviewed and approved by the Institutional Animal Ethics Committee of GVK Biosciences. We selected four designed macrocycles with diverse structures and in vitro rates of permeability for in vivo oral bioavailability studies in the rodent models. Due to the intensive resource requirements for such studies, these studies were conducted by three different research groups. D8.3.p1 and D10.1 were studied in female Balb/C mice by van Voorhis group at University of Washington. D11.2 was evaluated in Sprague Dawley (SD) rats by Robert Griffin’s group at Takeda Pharmaceuticals. D11.3 was studied in the male swiss albino mice by the contract research organization, GVK Biosciences Pvt. Ltd., Hyderabad, India. […] Blood samples were collected at multiple time points and plasma was separated from whole blood using centrifugation and stored at -80°C. […] Samples were mixed, centrifuged, and supernatant harvested for LC-MS analysis. For RP-HPLC analysis, peptides were evaluated using Agilent ZORBAX Eclipse Plus C18 1.8 μm, 2.1 mm x 50 mm and Waters Xevo TQ-S micro Triple Quadrupole/ACQUITY UPLC H-Class. […] Pharmacokinetic parameters were modeled using the Phoenix WinNonlin software package. […]

[3] = PAMPA
[4] = Parallel artificial membrane permeability assay (PAMPA); details: average of replicates R1-R3; BQL = no significant peak detected for the peptide in the acceptor wells
[5] = D8.3.p1 IV 1 mg/kg, individual mice M1, M2, M3, 1 mg/kg
[6] = D8.3.p1 PO 5 mg/kg, individual mice M1, M2, M3, 5 mg/kg
[7] = D8.3.p1 SQ 5 mg/kg, individual mice M1, M2, M3
[8] = female, Balb/C, mouse, in vivo, iv, 1 mg/kg, Plasma level
[9] = female, Balb/C, mouse, in vivo, sc, 5 mg/kg, Plasma level

## CC[C@@H](C)[C@H]1NC(=O)[C@@H](CC(C)C)NC(=O)[C@@H](CC(C)C)N(C)C(=O)[C@@H]2CCCN2C(=O)[C@@H](C(C)C)NC(=O)[C@H](CC(C)C)NC(=O)[C@@H](CC(C)C)N(C)C(=O)[C@@H]2CCCN2C1=O [Design D8.3.p1, DLEU DVAL PRO *DLEU DLEU DILE PRO *DLEU] (cyclo(L[dV]P[dNMeL][dL][dI]P[dNMeL]))
[1]
  Papp A→B: 11.8 ×10⁻⁶ cm/s
Caco-2 cells
  Caco_R1: 13.1
  Caco_R3: 8.9
[2]; [5]
  CLP: 37.62 mL/min/kg and 49.17 mL/min/kg and 38.55 mL/min/kg
  MRT: 15.45 min and 13.12 min and 15.23 min
  T1/2: 14.5 min and 10.5 min and 11.24 min
  VSS: 0.79 L/kg and 0.75 L/kg and 0.62 L/kg
  VZ: 0.89 L/kg and 0.87 L/kg and 0.59 L/kg
[2]; D8.3.p1 IV 1 mg/kg, individual mice M1, M2, M3, 1 mg/kg, read-out: C0
  C0: 1610 nM and 1470 nM
[2]; D8.3.p1 IV 1 mg/kg, mean n=3
  Half-life T1/2: 12.08 min
  Mean residence time MRT: 14.60 min
  Plasma clearance CLP: 41.78 mL/min/kg
  Volume of distribution @ steady state VSS: 0.72 ± 0.09 L/kg
  Volume of distribution during elimination phase VZ: 0.78 ± 0.17 L/kg
[2]; D8.3.p1 IV 1 mg/kg, mean n=3, read-out: Initial concentration C0
  C0: 1530 ± 70 nM
[2]; D8.3.p1 PO 5 mg/kg vs IV 1 mg/kg, mean
  Oral bioavailability F: 10.74%
[2]; [6]
  Cl/F: 0.0112 L/min and 0.00671 L/min and 0.00706 L/min
  T1/2: 23.33 min and 18.86 min and 45.25 min
  Tmax: 15 min and 30 min
[2]; D8.3.p1 PO 5 mg/kg, individual mice M1, M2, M3, 5 mg/kg, read-out: Cmax
  Cmax: 220 nM and 190 nM
[2]; D8.3.p1 PO 5 mg/kg, mean n=3
  Apparent clearance Cl/F: 0.00834 L/min
  Half-life T1/2: 29.15 min
  Time of max concentration Tmax: 25 ± 0.01 min
[2]; D8.3.p1 PO 5 mg/kg, mean n=3, read-out: Max concentration Cmax
  Cmax: 210 ± 20 nM
[2]; [7]
  Cl/F: 0.000617 L/min and 0.000577 L/min and 0.000312 L/min
  T1/2: 111.2 min and 101.86 min and 250.78 min
  Tmax: 60 min and 30 min
[2]; D8.3.p1 SQ 5 mg/kg, individual mice M1, M2, M3, read-out: Cmax
  Cmax: 840 nM and 1080 nM and 930 nM
[2]; D8.3.p1 SQ 5 mg/kg, mean n=3
  Half-life T1/2: 154.61 min
  Time of max concentration Tmax: 50 ± 17.32 min
[2]; D8.3.p1 SQ 5 mg/kg, mean n=3, read-out: Max concentration Cmax
  Cmax: 950 ± 120 nM
[2]; female, Balb/C, mouse, in vivo, iv, 1 mg/kg, 5 min
  Plasma level: 990 nM
[2]; female, Balb/C, mouse, in vivo, iv, 1 mg/kg, 0.25 h
  Plasma level: 630 nM
[2]; [8]
  level at time molar at 5 min: 1110 nM
  level at time molar at 0.25 h: 420 nM
  level at time molar at 0.5 h: 190 nM
[2]; female, Balb/C, mouse, in vivo, sc, 5 mg/kg, 0.25 h
  Plasma level: 700 nM
[2]; female, Balb/C, mouse, in vivo, sc, 5 mg/kg, 0.5 h
  Plasma level: 710 nM
[2]; female, Balb/C, mouse, in vivo, sc, 5 mg/kg, 2 h
  Plasma level: 880 nM
[2]; female, Balb/C, mouse, in vivo, sc, 5 mg/kg, 6 h
  Plasma level: 230 nM
[2]; [9]
  level at time molar at 0.25 h: 510 nM
  level at time molar at 0.5 h: 540 nM
  level at time molar at 1 h: 840 nM
  level at time molar at 2 h: 720 nM
  level at time molar at 6 h: 150 nM
  level at time molar at 24 h: 20 nM
[2]; female, Balb/C, mouse, in vivo, sc, D8.3.p1 SQ 5 mg/kg, 30 min, individual mice M1, M2, M3, read-out: Plasma level
  level at time molar at 0.5 h: 1080 nM
[2]; female, Balb/C, mouse, in vivo, D8.3.p1 PO 5 mg/kg, mean n=3
  AUC(0-inf): 0.238 µM·h
[2]; female, Balb/C, mouse, in vivo, D8.3.p1 PO 5 mg/kg, mean n=3, read-out: AUC0-t (converted)
  AUC(0-t): 0.182 µM·h
[2]; female, Balb/C, mouse, plasma, sc, D8.3.p1 SQ 5 mg/kg, mean n=3, read-out: Apparent clearance Cl/F
  CL/F: 0.502 mL/min
[2]; mouse, in vivo, 5 mg/kg, Tmax
  Tmax: 60 min
[2]; mouse, in vivo, iv, 1 mg/kg, 5 min
  Plasma level: 1070 ± 70 nM
[2]; mouse, in vivo, iv, 1 mg/kg, 0.5 h
  Plasma level: 270 ± 90 nM
[2]; mouse, in vivo, iv, 1 mg/kg, 1 h
  Plasma level: 60 ± 40 nM
[2]; mouse, in vivo, iv, 1 mg/kg, C0
  C0: 1520 nM
[2]; mouse, in vivo, po, 5 mg/kg, 1 h
  Plasma level: 120 ± 40 nM
[2]; mouse, in vivo, po, 5 mg/kg, 2 h
  Plasma level: 10 nM
[2]; mouse, in vivo, po, 5 mg/kg, Cmax
  Cmax: 230 nM
[2]; mouse, in vivo, po, 5 mg/kg, Tmax
  Tmax: 30 min
[2]; mouse, in vivo, sc, 5 mg/kg, 0.25 h
  Plasma level: 610 ± 130 nM
[2]; mouse, in vivo, sc, 5 mg/kg, 0.5 h
  Plasma level: 780 ± 280 nM
[2]; mouse, in vivo, sc, 5 mg/kg, 1 h
  Plasma level: 900 ± 50 nM
[2]; mouse, in vivo, sc, 5 mg/kg, 2 h
  Plasma level: 780 ± 90 nM
[2]; mouse, in vivo, sc, 5 mg/kg, 4 h
  Plasma level: 340 ± 170 nM
[2]; mouse, in vivo, sc, 5 mg/kg, 6 h
  Plasma level: 130 ± 120 nM
[2]; mouse, in vivo, sc, 5 mg/kg, 24 h
  Plasma level: 10 ± 0 nM
[3]
  PAMPA_R1: 5.23E-06
  PAMPA_R3: 3.90E-06
[4]
  PAMPA_Papp_Avg: 4.61E-06
